# Assay: Human HepG2 cell viability assay in 384 well format
# Type: toxicity, cell-based
# Parameters: dose 125 nL, time 70.5 hour; concentration not given beside the values
# Details: HepG2 cells, read-out: Inhibition
row,SMILES,cytotoxicity at 70.5 h [%]
1,O=C(NCc1ccccc1CN1CCCC1=O)Nc1nncs1,-7.24
2,O=S(=O)(CCCc1ccccc1)Cc1nnnn1C1CC1,-8.42
3,O=C(NCc1ccccc1CN1CCCC1=O)Nc1nccs1,-9.69
4,CC1CCCCN1Cc1nc(Cc2ccccc2)no1 (stereo not given),-10.4
5,CC(C)(C(=O)NCc1ccc(C#N)cc1)n1cc(Br)cn1,-2.27
6,O=C(Cn1ccc(=O)c2ccccc21)Nc1cnccc1O,8.04
7,CN(C1CCN(c2ccccn2)CC1)S(=O)(=O)c1ccc(F)cc1,-6.89
8,O=C(c1ccc2c(c1)CCC2)N1CCCCC1C1OCCO1 (stereo not given),-7.93
9,N#Cc1ccc(SCCOCCO)c(F)c1,-8.55
10,CN(C)c1ncccc1C(=O)N1CCN(C2=NCC(C)(C)S2)CC1,6.73
11,O=C(CC1OCCc2ccsc21)NCC1CC1 (stereo not given),-1.8
12,NC(=O)CCNC(=O)Cc1cccc(I)c1,16.7
13,COCCn1ccc(NCc2scnc2C)n1,-8.55
14,N#Cc1ccc(SCCOCCO)c(Cl)c1,-5.04
15,c1ccc(Cc2noc(CN3CCCC3C3CCCCC3)n2)cc1 (stereo not given),16.5
16,CN(C)C(C(=O)NCC1(O)CCCCC1)c1c(F)cccc1F (stereo not given),-13
17,CCOc1ccnc(N2CCN(CCOC)CC2)n1,-5.63
18,Cc1cnc(CN2CCN(C(C)c3nc(C)no3)CC2)cn1 (stereo not given),17.2
19,CC(C)N(Cc1ccccc1)Cc1nnsc1Cl,-8.66
20,CCNC(=O)CN1CCOC(c2ccccc2C(F)(F)F)C1 (stereo not given),0.292
21,CCOCCOCc1cccc(CNc2cncc(-n3cccn3)n2)c1,-2.12
22,COc1ncccc1CNCc1c(C(C)C)nn(C)c1Cl,-5.22
23,COc1ccccc1C(C)CNC(=O)c1c(C)nn(C)c1OC (stereo not given),-3.39
24,COc1ncccc1CNCc1c(C(C)C)nn(C)c1N(C)C,-1.75

row,SMILES,cytotoxicity at 70.5 h [%]
1,COc1ccc(NC(=O)N(C)Cc2ccc(Br)o2)cn1,-6.19
2,CCN(CC)C(=O)c1ccc(COc2ccccc2C#N)o1,-9.63
3,Cn1ccnc1COc1ccc(NC(=O)C2CCCO2)cc1 (stereo not given),3.57
4,Cc1cccc(-c2ccc(C(=O)NCCN3CCOCC3)c(=O)[nH]2)c1,-6.01
5,N#CCCN(CCC#N)C(=O)c1ccc(COc2ccccc2C#N)o1,6.22
6,O=C(NCCCN1CCOCC1)c1ccc(-c2ccccc2)[nH]c1=O,-5.86
7,CCSCCC(=O)NCCn1nc2ccccn2c1=O,-7.12
8,COc1ccccc1N1CCC(CNC(=O)CN2CSCC2=O)C1 (stereo not given),-7.92
9,CN(Cc1cccs1)C(=O)c1ccc(N2CCOCC2)c(F)c1,12.4
10,O=C(CN1CCCCCC1=O)NCC1CCN(c2ccccc2)C1 (stereo not given),-5.56
11,COc1cc(NC(=O)NCCO)ccc1N1CCOC1=O,-6.58
12,COc1cc(NC(=O)NC(C2CC2)C2CC2)ccc1N1CCOC1=O,-18
13,COc1ncccc1CNCc1c(C(C)C)nn(C)c1OC,-4.91
14,CN(Cc1ccc2c(c1)OCO2)C(=O)c1ccn(C)c(=O)c1,-10.8
15,COc1c(CNCc2ccc(CN3CCOCC3)cc2)c(C)nn1C,5.61
16,COc1c(CNCc2cccnc2OC(C)C)c(C(C)C)nn1C,-8.38
17,Cc1ccsc1CN(C)C(=O)c1ccc(N2CCOCC2)c(F)c1,-7.5
18,COC(=O)NCCC(=O)NCC1(c2cccc(Cl)c2)CC1,-6.53
19,O=C(CCc1ccncc1)Nc1ccc(OCC2CCOCC2)cc1,-13.6
20,COC(=O)NCCCC(=O)NC1(c2cccc(Cl)c2)CC1,-6.46
21,CN(Cc1cc(=O)c(O)co1)C1CCN(c2ccc(F)cc2)CC1,22.1
22,CNS(=O)(=O)CC1CCCN1C(=O)c1ccc2cc[nH]c2c1 (stereo not given),-7.71
23,COC(=O)Cc1cccc(NC(=O)Cc2cc(C)[nH]n2)c1,21.3
24,Cc1cc(=O)n(C)cc1NC(=O)CC1CCC1,-2.84

row,SMILES,cytotoxicity at 70.5 h [%]
1,O=C(CCc1ccncc1)Nc1ccc(OCC2CC2)cc1,-11.9
2,CCc1nc(C(=O)N2CCN(Cc3ccc(Cl)cc3)CC2)c[nH]1,-2.01
3,CC(C)C(=O)N1CCC(NC2CCSCC2)C1 (stereo not given),-4.83
4,CCc1nc(C(=O)N2CCN(C(=O)CCc3ccccc3)CC2)c[nH]1,-6.61
5,CCc1nnc2n1CC(CNCC1CCCC1)CC2 (stereo not given),-1.75
6,Cc1cc(C)c(CNC(=O)C2COc3ccccc3C2)c(=O)[nH]1 (stereo not given),0.458
7,Cc1n[nH]c(C)c1NC(=O)Nc1cccnc1N1CCCC1,12.8
8,Cc1cc(C)c(CNC(=O)NC2COc3ccccc3C2)c(=O)[nH]1 (stereo not given),-8.39
9,Cc1cc(C)c(CNC(=O)NCC2Cc3ccccc32)c(=O)[nH]1 (stereo not given),-12
10,Cc1cc(C)c(CNC(=O)NCC2COc3ccccc3C2)c(=O)[nH]1 (stereo not given),-10.2
11,O=S1(=O)N=C(CSCc2ccccc2)Nc2ccccc21,-3.64
12,Cn1nc2c(cc1=O)CN(c1ncnc3ccsc13)CC2,3.58
13,Cc1nnc(C(NS(=O)(=O)c2cc(C)c(F)cc2F)C(C)C)[nH]1 (stereo not given),-6.79
14,Cc1ccc(NC(=O)CN2CCC(OCC3CCCO3)CC2)c(C)c1 (stereo not given),5.15
15,CNC(=O)CN1CCC(OCC2CCCO2)CC1 (stereo not given),-8.23
16,CS(=O)(=O)Cc1cc(F)ccc1NCc1nnsc1Cl,12.3
17,COc1cc(CNc2cc(-c3nncn3C)ccn2)cc(OC)c1OC,-3.3
18,CCN1CCC(NC(=O)NCC(O)c2ccc(Cl)c(F)c2)CC1 (stereo not given),6.86
19,O=C(NCC(O)c1ccc(Cl)c(F)c1)NC1CC=CC1 (stereo not given),-3.83
20,CC(=O)N1CCN(c2ccnc3c(F)cc(Br)cc23)CC1,-1.55
21,COc1cccc(CN(C)Cn2nc(C(C)(C)C)ccc2=O)c1,2.69
22,CN(Cc1cccc(C#N)c1)Cn1nc(C(C)(C)C)ccc1=O,-0.146
23,CSCC(=O)N(C)Cc1ccc(N(C)C)cc1,-6.63
24,CC(C)(C)c1nnc(CN(Cc2cccs2)CC2CCCO2)o1 (stereo not given),-1.38

row,SMILES,cytotoxicity at 70.5 h [%]
1,CCOCC1CCN(C(=O)Nc2ccc3c(c2)CCCO3)C1 (stereo not given),17.3
2,CCCc1nnc(NC(=O)N2CCCC2c2ccncc2)s1 (stereo not given),18.5
3,O=C(NCCNC(=O)c1ccc(Br)cc1)c1ccc(O)cc1,-11
4,N#Cc1cccnc1NCc1ccc(S(=O)(=O)NC2CC2)cc1,-17.8
5,N#Cc1cccnc1NCc1ccc(S(=O)(=O)NCC2CCCO2)cc1 (stereo not given),14
6,CC(C)N(Cc1ccc(C#N)cc1)Cc1nnsc1Cl,-15.5
7,COc1cc2c(cc1OC)S(=O)(=O)N(Cc1cccc(C)c1)C2=O,-11.2
8,CC(O)CN(c1ccccc1)S(=O)(=O)c1cc(C(=O)O)cc2c1CCC2 (stereo not given),-7.68
9,CCNC(=O)NC(=O)C(C)N1CCCc2cc(OC)ccc2C1 (stereo not given),-10.4
10,CCNC(=O)C1CCCN(C(=O)Nc2ccc3c(c2)CCCN3C)C1 (stereo not given),-9.82
11,COc1cc2c(cc1OC)S(=O)(=O)N(Cc1ccccc1C)C2=O,23.7
12,CC(C)Oc1ccc(CNC(=O)c2cc(C(N)=O)cs2)cc1F,-12.2
13,CC(C)NC(=O)CNC(=O)OC(C)(C)C,-13
14,CCc1ncncc1C(=O)Nc1ccc2ccn(CCN(C)C)c2c1,-9.77
15,Cc1ncccc1C(=O)Nc1ccc2ccn(CCN(C)C)c2c1,-4.81
16,O=C(NCCNc1ccc(Br)cn1)c1ccc(O)cc1,-6.46
17,O=C(c1ccncc1)N1CCN(C(=O)c2coc3ccccc23)CC1,-11
18,CC(C)C[C@H](NC(=O)CNC(=O)OC(C)(C)C)C(=O)OC(C)(C)C,-0.919
19,OCC(O)CSCc1nnc(-c2cccc(F)c2)o1 (stereo not given),-14.7
20,CCS(=O)(=O)CC(C)N(C)C(=O)NCCc1cccc(F)c1F (stereo not given),-5.89
21,N#Cc1cccnc1NCc1cccc(C(=O)NCC2CCCCO2)c1 (stereo not given),-10.4
22,COC(=O)C(C)N1CCCc2cc(OC)ccc2C1 (stereo not given),-4.67
23,O=C(NCCNc1cncc(Br)c1)c1ccc(O)cc1,-8.4
24,O=C(NCCc1cccs1)N1CCCC1CCCO (stereo not given),-9.42

row,SMILES,cytotoxicity at 70.5 h [%]
1,CCCc1nn(C2CCN(C(C)C)C2=O)c(=O)o1 (stereo not given),-1.04
2,COc1cccc(CNc2nc(C)cc(C)n2)c1OC,-2.87
3,CC(NC(=O)Cn1cc(C(N)=O)c(-c2ccccc2)n1)C1CC1 (stereo not given),-10
4,CCCN(C(=O)c1cnns1)C1CCCN(Cc2ccccc2)C1 (stereo not given),-7.29
5,CCOc1ccccc1C(CC(=O)N(C)C)NC(C)=O (stereo not given),-0.953
6,CCOc1ccccc1C(CC(=O)N(C)c1ccccc1)NC(C)=O (stereo not given),15.9
7,Cn1cnc2c1CCN(CCOc1ccc3c(c1)CCC(=O)N3)C2,-12.1
8,O=C(Nc1ccc(CCN2CCSCC2)cc1)NC1CC1,-11.9
9,CN1CCOC(CNCc2c(Cl)nc3ccccn23)C1 (stereo not given),-19.2
10,Cc1cc(C)n(C2CN(CC(=O)NCc3ccccn3)C2)n1,-16.2
11,O=C(CCc1nc(C2CC2)no1)c1ccc2c(c1)OCCO2,-16.9
12,CC(C(=O)Nc1cc(F)ccc1F)N1CCN(Cc2ncc[nH]2)CC1 (stereo not given),42.5
13,O=C(COc1ccccc1NCc1ccc(F)cc1)N1CCOCC1,-20.5
14,COc1ccc(C(=O)CCc2nc(C3CC3)no2)cc1F,-13.6
15,NC(=O)c1ccc(OCC(=O)N2CCCC2c2ccc[nH]2)cc1 (stereo not given),42.3
16,O=C(Cn1ncc2ccccc21)Nc1ccnn1CC1CCOC1 (stereo not given),-23.1
17,O=C1NC(c2cnc(C3CCC3)s2)Nc2ccccc21 (stereo not given),-9.55
18,Cc1cc(NC(=O)NCC2(O)CCCC2)ccn1,-14
19,CN(Cc1cnccn1)S(=O)(=O)c1ccc(C(F)(F)F)nc1,36.5
20,CC(C)c1noc(CCNC(=O)N2CCSC(C(C)C)C2)n1 (stereo not given),-3.03
21,Cc1nnnn1-c1cc(NCc2cc(C#N)ccc2F)ccc1F,-10.8
22,CC(C)c1nn(C)c(Cl)c1CNCc1cccnc1N(C)C,-9.54
23,CC(C)c1noc(CN2CCC(C3CCCCCN3S(C)(=O)=O)CC2)n1 (stereo not given),11
24,CC(=O)N1CCCCCC1C1CCN(Cc2nc(C(C)C)no2)CC1 (stereo not given),0.62
